Assay results published in patent US20250362286A1, “SCREENING MODELS AND METHODS OF CANCER TREATMENT” (The Regents of the University of California, priority 2022, published 2025).
Entries after “also recorded” stand apart in the source; their conditions may differ.

What was measured:
PA-14-13 PDOs [1] = test: RT-qPCR of CD24 and CDH1 expression in PDOs; type: cell-based; details: 20 μM, 48 h
Procedure: (§1) As a first step towards assessing the efficacy of ISX9 to differentiate patient-derived tumor cells, PDOs from the PIM025 (“hybrid epithelial” EMT status) and PA14-13 (“hybrid mesenchymal” EMT status) TNBC PDX tumors were produced and treated with 20 μM ISX9 for 48 h. […] FIG. 8D and FIG. 8E depict RT-qPCR of CD24 and CDH1 expression in PIM025 PDOs and PA-14-13 PDOs, respectively.

PIM025 PDOs = test: RT-qPCR of CD24 and CDH1 expression in PDOs; type: cell-based; details: 20 μM, 48 h
Procedure: as §1

Notch1 = test: immunofluorescence staining of cleaved intracellular domain of Notch1 in MDAs; type: cell-based; details: vs vehicle, even in 2D culture
Excerpt: FIG. 3B depicts immunofluorescence staining of cell nuclei and cleaved intracellular domain of Notch1 in vehicle and Isx9 treated MDAs.

[2] = cited from earlier work
PA-14-13 PDOs [3] = test: FACS analysis of CD44+/CD24- CSCs and CDH1+ cells in PDOs; type: cell-based
Excerpt: (§2) These figures depict flow cytometry analysis of CD44*/CD24 CSC in (FIG. 8F and FIG. 8G) PIM025 PDOs and (FIG. 8H and FIG. 8I) PA-14-13 PDOs treated with vehicle or ISX9.
(§3) FIG. 8J and FIG. 8K depict a flow cytometry analysis of CDH1^+ cells in PIM025 PDOs treated with vehicle or ISX9. FIG. 8L and FIG. 8M depict a flow cytometry analysis of CDH1^+ cells in PA-14-13 PDOs treated with vehicle or ISX9.

PIM-025 PDOs [4] = test: as above; type: cell-based
Excerpt: as §2, §3

LL/2 lung cancer cells = test: western blot of EMT transcription factor TWIST1; type: cell-based; details: HD Col1, 7 days
Excerpt: FIG. 4E depicts a western blot analysis of EMT transcription factor TWIST1 in LL/2 lung cancer cells treated with vehicle or ISX9 for 7 days in 2D TC or HD Col1.

MDAs [5] = test: western blot of EMT markers E-cadherin and Vimentin; type: cell-based
Excerpt: Given the strong phenotypic changes induced by ISX9 in HD Col1 (FIG. 2), this example also assessed the differentiation activity of ISX9 by characterizing Epithelial-to-Mesenchymal (EMT) status using western blot (WB) analysis of E-cadherin and vimentin levels. […] FIG. 3D depicts WB of EMT markers E-cadherin and Vimentin in cancer cell lines treated with vehicle or ISX9.
To understand whether ISX9 treatment could induce Mesenchymal-to-Epithelial Transition (MET), western blotting (WB) was performed for the epithelial marker E-Cadherin (CDH1) and the Mesenchymal marker Vimentin (Vim) on 2D and HD Collagen-treated tumor cells (FIG. 4D). FIG. 4D depicts a western blot analysis of EMT markers E-cadherin and Vimentin in MDAs treated with vehicle or ISX9 for 7 days in 2D TC or HD Col1.

MDAs [6] = test: flow cytometry of CD44+/CD24- CSC population in MDAs; type: cell-based
Excerpt: To further assess differentiation status, RT-PCR and flow cytometry (FC) was used to quantify expression of the CSC stemness biomarker signature CD44^+/CD24^− in MDAs. At the population level, MDAs increased CD24 mRNA expression ˜14-fold with ISX9 treatment after 7 days (FIG. 3E). FIG. 3E depicts RT-qPCR of CD24 expression in MD As treated with vehicle or ISX9. […] (FIG. 3F, FIG. 3G). FIG. 3F and FIG. 3G depicts flow cytometry analysis of MDAs treated with vehicle or ISX9.
Cells in 2D tissue culture and HD Collagen I were treated with ISX9 daily for 7 days, dissociated and flow-sorted. […] These figures depict fluorescence profiles of CD44/CD24 in MDAs treated with vehicle or ISX9 for 7 days in (FIG. 4A) 2D TC or (FIG. 4B) HD Col1. FIG. 4C depicts a flow cytometry analysis of CD44^+/CD24^− MDA cells treated with vehicle or ISX9.

PA-14-13 PDOs [7] = test: western blot of E-Cadherin and Vimentin in PDOs; type: cell-based; details: 6 days
Excerpt: (§4) FIG. 8N depicts a western blot analysis of E-Cadherin and Vimentin in PIM-025 PDOs treated with vehicle or ISX9 for 6 days. FIG. 8O depicts a western blot analysis of E-Cadherin and Vimentin in PA-14-13 PDOs treated with vehicle or ISX9 for 6 days.

PIM-025 PDOs [8] = test: western blot of E-Cadherin and Vimentin in PDOs; type: cell-based; details: 6 days
Excerpt: as §4

MDAs [9] = test: chemo-susceptibility to doxorubicin after pre-treatment, MTS assay; type: cell-based; details: 7d pre-treatment in HD Col1, then chemotherapy 3d; normalized to vehicle control
Procedure: To determine whether ISX9 could be used in a similar therapeutic function, MDAs and R40P cells were treated with vehicle or ISX9 for 7d in HD Col1, followed by chemotherapy for 3d and MTS assay to quantify viable cells.

SMILES: O=C(NC1CC1)c1cc(-c2cccs2)on1 [ISX9, Isoxazole 9]
- upregulation of CD24 (PA-14-13 PDOs [1]): ~1,080 fold
- upregulation of CDH1 (PA-14-13 PDOs [1]): ~41 fold
- CDH1 mRNA expression (PIM025 PDOs): slight increase
- upregulation of CD24 mRNA transcription (PIM025 PDOs): 1.5 fold
- localization of activated Notch1 (cleaved intracellular domain) (Notch1): strong nucleolar localization
- detection in heart tissue ([2]; ip injection): detected
- terminal half-life in plasma ([2]; single bolus ip injection): < 15 min
- CD44+/CD24- CSCs (FACS) (PA-14-13 PDOs [3]; after 6 days of treatment): reduction in CD44+/CD24− CSCs
- CDH1+ cells (FACS) (PA-14-13 PDOs [3]; vs vehicle): enrichment in CDH1^+ cells
- CD44+/CD24- CSCs (FACS) (PIM-025 PDOs [4]; after 6 days of treatment): reduction in CD44+/CD24− CSCs
- CDH1+ cells (FACS) (PIM-025 PDOs [4]; vs vehicle): slight reduction in CDH1^+ cells
- TWIST1 protein expression (WB) (LL/2 lung cancer cells): reduced TWIST1 protein expression
- effect on MET markers E-Cadherin and Vimentin (WB) (MDAs [5]; 2D-treated cells, 7 days): no effect on either MET marker
- E-cadherin expression (WB) (MDAs [5]; 7 days in HD Col1): increased E-cadherin expression; also recorded: increase in E-Cadherin
- Vimentin expression (WB) (MDAs [5]; 7 days in HD Col1): reduced Vimentin expression; also recorded: decrease in Vimentin
- population of CD44+/CD24- CSCs (MDAs [6]; 2D and HD Collagen I, treated daily for 7 days): reducing the population of CD44^+/CD24^− CSCs to a similar degree
- CD44+/CD24- cells, share of the population (MDAs [6]; with treatment, vehicle ˜100%): ~67%
- Vimentin expression (WB) (PA-14-13 PDOs [7]): no observed differences to Vimentin expression
- Vimentin expression (WB) (PIM-025 PDOs [8]): no observed differences to Vimentin expression
- decrease in IC50 to doxorubicin (MDAs [9]): ~14.5 fold
